Converted amounts (≈) assume the structure as drawn. Where two headings read alike, the source gives them in different places.
How the values were obtained:
[1] = tested on: carbapenem-resistant Klebsiella pneumoniae clinical isolates (blaKPC); test: DDM (digital dispensing method) MIC testing of CRE isolates; type: cell-based; details: for MIC: Klebsiella pneumoniae, read-out: DDM modal MICs
Experimental: (§1) Bacterial strains: The 10 de-identified CRE clinical isolates used in the study were collected at our institution under Institutional Review Board-approved protocols and were sequenced through the carbapenem-resistant Enterobacteriaceae genome initiative at the Broad Institute (Cambridge, MA). All contained a Klebsiella pneumoniae carbapenemase (blaKPC) gene and were colony-purified, minimally passaged, and stored at -80° C. prior to use in this study.
(§2) After incubation, bacterial growth was quantified by measurement of OD600 using an Epoch (BioTek, Winooski, VT) or Spark 10 M microplate reader (Tecan, Morrisville, NC). An OD600 reading of 0.08 or greater (approximately twice typical background readings in wells containing broth alone) was considered indicative of bacterial growth (as also appreciable by visual assessment).
(§3) Precision and accuracy. […] Modal DDM MICs were calculated by taking the mode of all DDM MIC measurements obtained for a given antibiotic-strain combination, inclusive of initial MIC titrations and single-antibiotic rows/columns in synergy arrays (Table 5).

[2] = tested on: carbapenem-resistant Escherichia coli clinical isolates (blaKPC); test: as above; type: cell-based; details: Escherichia coli, read-out: DDM modal MICs
Experimental: as §1, §2, §3

[3] = tested on: 4 bacterial screening strains (BIDMC 4, BIDMC 5, BIDMC 12A, and BIDMC 15); test: Checkerboard synergy testing screen (FICI-MIN); type: cell-based, Klebsiella pneumoniae; Escherichia coli; details: range over strains; read-out: MICs of the strains
[4] = tested on: 14 Enterobacteriaceae strains presumptively expressing extended spectrum beta-lactamase enzymes; test: Inoculum effect by digitally dispensed checkerboard of bacteria and antibiotic; type: cell-based; details: inkjet printing method, inoculum above/below CLSI-recommended
Text: Inoculum effect experiments comprise a series of broth microdilution experiments in which the cell density of the bacterial inoculum is varied (often 10-fold) across multiple identical doubling dilutions of antibiotics. The MICs are then interpreted at each inoculum concentration.
There is currently no practical way to test for an inoculum effect within the workflow of a clinical laboratory, as such testing would require a highly laborious manual process of testing different inoculum levels with several potential antimicrobials. […] By varying the droplet size during digital printing of a bacterial suspension as described in the preceding section, a desired inoculum of bacteria can be added to each testing well. More specifically, doubling dilutions of bacterial inocula can be performed if desired, thereby establishing the relationship between inoculum and MIC through an inoculum dose-response curve.
We investigated the inoculum effect for cefepime (a fourth generation cephalosporin) on 14 Enterobacteriaceae strains presumptively expressing extended spectrum beta-lactamase enzymes based on third generation cephalosporin resistance. Bacteria and antibiotics were both dispensed as orthogonal, combinatorial two-fold dilution series using our digital dispensing method to create a checkerboard array. […]

[5] = tested on: E. coli ATCC 25922; test: Microscopy-based AST (MAST): cell morphology at the MIC
[6] = tested on: Klebsiella pneumoniae strains expressing extended spectrum β-lactamases; details: cited from earlier work
[7] = tested on: Klebsiella pneumoniae strains expressing extended spectrum β-lactamases; details: cited from earlier work; remark: listed apart in the source
[8] = tested on: eighty de-identified Enterobacteriaceae clinical isolates; test: organism not typed; type: cell-based; details: for Non-susceptible strains (%) / Non-susceptible strains n: eighty clinical isolates, reference microdilution, CLSI criteria, EUCAST for colistin
Experimental: K. pneumonia BIDMC12A is a previously described, carbapenem resistant clinical isolate (14) expressing a KPC-3 carbapenemase. The eighty de-identified Enterobacteriaceae clinical isolates (Table 1) used for verification studies were collected at our institution under IRB-approved protocols. All strains were minimally passaged and stored at -80° C. prior to use in this study.
Verification study: Digital dispensing and reference method testing were performed in parallel using the same inoculum preparation. Microdilution reference panels were pre-prepared and stored at -80° C. until use (less than 2 weeks). D300 test method panels were prepared fresh each day of use.
Accuracy was evaluated using established guidelines (16, 17). The MIC determined by the digital dispensing method was compared with the MIC determined by the broth microdilution reference method. Essential agreement, overall essential agreement, and categorical agreement were evaluated as described in the precision study.

[9] = tested on: E. coli ATCC 25922; test: MIC testing by broth microdilution and D300 digital dispensing (precision study); details: Escherichia coli, ATCC25922, read-out: reference MIC
[10] = tested on: E. coli ATCC 25922; details: CLSI quality control range; cited from earlier work
[11] = tested on: P. mirabilis ATCC 702; test: MIC testing by broth microdilution and D300 digital dispensing (precision study)
[12] = tested on: carbapenem-resistant Enterobacteriaceae; details: cited from earlier work
[13] = tested on: E. cloacae ATCC 13047; test: MIC testing by broth microdilution and D300 digital dispensing (precision study); type: cell-based, Enterobacter cloacae; details: EUCAST criteria
[14] = tested on: KPC-producing CRE K. pneumoniae strains; test: Checkerboard synergy, spectrum of activity evaluation; type: cell-based, Klebsiella pneumoniae; details: strain BIDMC 18A

Row | Compound | MIC ([1]; BIDMC 4, KPN, KPC type 3) | MIC ([1]; BIDMC 5, KPN, KPC type 3) | MIC ([1]; BIDMC 10, KPN, KPC type 3) | MIC ([1]; BIDMC 12A, KPN, KPC type 3) | MIC ([1]; BIDMC 18A, KPN, KPC type 2) | MIC ([2]; BIDMC 6, ECO, KPC type 2) | MIC ([2]; BIDMC 9, ECO, KPC type 2) | MIC ([2]; BIDMC 15, ECO, KPC type 2) | MIC ([2]; BIDMC 17A, ECO, KPC type 2) | MIC ([2]; BIDMC 20A, ECO, KPC type 3) | cell morphology at the MIC ([5]; MAST, 2-hour incubation) | Non-susceptible strains (%) [8] | Non-susceptible strains n [8] | further results
1 | C[C@@H](O)[C@H]1C(=O)N2C(C(=O)O)=C(S[C@@H]3CN[C@H](C(=O)Nc4cccc(C(=O)O)c4)C3)[C@H](C)[C@H]12 [ETP, ertapenem] | 32 µg/mL | 16 µg/mL | 16 µg/mL | 32 µg/mL | 64 µg/mL | 8 µg/mL | 8 µg/mL | 32 µg/mL | 8 µg/mL | 4 µg/mL | – | – | – | MIC [3]: 8 to 64 µg/mL
2 | CO/N=C(\C(=O)N[C@@H]1C(=O)N2C(C(=O)[O-])=C(C[N+]3(C)CCCC3)CS[C@H]12)c1csc(N)n1 [FEP, cefepime] | 64 µg/mL | 16 µg/mL | 16 µg/mL | 16 µg/mL | – | 8 µg/mL | 32 µg/mL | 4 µg/mL | 4 µg/mL | 8 µg/mL | filamented bacteria with a pronounced central bulge | – | – | inoculum effect [4]: pronounced
3 | C[C@@H](O)[C@H]1C(=O)N2C(C(=O)O)=C(S[C@@H]3CN[C@H](C(=O)N(C)C)C3)[C@H](C)[C@H]12 [Meropenem (MEM), Meropenem] | 32 µg/mL | 8 µg/mL | 4 µg/mL | 8 µg/mL | 32 µg/mL | 2 µg/mL | 4 µg/mL | 4 µg/mL | 2 µg/mL | 1 µg/mL | rounded sphereoplasts | 17.5% | 14 | survival of infected mice after treatment ([6]; high dose inoculum): survived; survival of infected mice after treatment ([6]; low bacterial inoculum): survived; in vitro inoculum effect [7]: insignificant inoculum effect; MIC ([8]; read-out: modal MIC): 0.03 µg/mL (≈ 0.0782 µM); cell morphology at the MIC ([5]; E. coli after 2 hours, FIG. 13): swelling
4 | Cc1nnc(SCC2=C(C(=O)O)N3C(=O)[C@@H](NC(=O)Cn4cnnn4)[C@H]3SC2)s1 [Cefazolin (CFZ), Cefazolin] | – | – | – | – | – | – | – | – | – | – | – | – | – | MIC [9]: 2 µg/mL (≈ 4.4 µM); quality control range (MIC) [10]: 1 to 4 µg/mL; MIC ([11]; Proteus mirabilis, ATCC702, read-out: reference MIC): 4 µg/mL (≈ 8.8 µM)
5 | Colistin [Colistin (CL)] | – | – | – | – | – | – | – | – | – | – | – | 21.5% | 17 | DDM modal MICs ([1]; BIDMC 5, KPN, KPC type 3): 0.5 mg/L; share of carbapenem-resistant Enterobacteriaceae against which the drug is effective [12]: > 85%; categorical susceptibility result [13]: resistance; MIC [14]: > 128 µg/mL; categorical susceptibility result ([11]; precision study, EUCAST criteria): resistance

Reference: patent publication US20230304064A1, “AUTOMATED, DIGITAL DISPENSING PLATFORM FOR MICRODILUTION ANTIMICROBIAL SUSCEPTIBILITY TESTING” (priority 2016, published 2023)
